Source: patent US12370212B2, “Intradialytic use of sodium thiosulfate” (Hope Medical Enterprises, Inc., priority 2017, dated 2025)
Read-outs that look alike come from different tables or passages of the source.

Columns and labels:
[1] = mixed dialysate exiting hemodialysis machine; expected 0.0608 mg/L
Description: (§1) Concentration of thiosulfate in samples was assayed by ion chromatography. The ion chromatograph was equipped with an electrochemical conductivity detector and a Dionex IonPacAS12A analytical column. The sodium thiosulfate content in the samples tested was calculated against an external sodium thiosulfate standard. USP Sodium Thiosulfate Reference Standard (Item Number 1615107) was the testing standard (United States Pharmacopeia. Rockville, Maryland).
The machine was primed in bypass mode (dialysate and ultrafiltration rates set at zero) using normal saline.

[2] = for Thiosulfate Concentration After the Addition of Sodium Thiosulfate (Time = 60 Min): average of two samples
Description: as §1
Dialysate bicarbonate concentrate solution was prepared by adding 1 package of Centrisol© MB-330 Series Sodium Bicarbonate Concentrate powder (650 g) to 7.7 liters of purified water.
The hemodialysis machine mixed the bicarbonate concentrate solution and acid concentrate solution with the dilution ratio of 1 part of an acid concentrate solution, 1.72 parts of a bicarbonate concentrate solution, and 42.38 parts of purified water. The machine was primed in bypass mode (dialysate and ultrafiltration rates set at zero) using normal saline. After priming, the hemodialysis machine was run in “Therapy Mode” with the following settings: blood flow rate 300 mL/minute, dialysate flow rate 600 mL/minute, ultrafiltration rate 0 mL/minute.
An aqueous solution of sodium thiosulfate was prepared by dissolving 25 mg of sodium thiosulfate in 1 liter of purified water. […] This valve was placed in the dialysate tubing approximately eight inches upstream of the dialyzer (pre-filter). Two sampling ports were placed four inches upstream (pre-dialyzer sampling port) and ten inches downstream (post-dialyzer sampling port) from the dialyzer to collect samples of dialysate for […] assay by ion chromatography.
The infusion pump infused the sodium thiosulfate solution into the tubing through the valve at a rate of 250 mL/hour (4.16 mL/minute).
Normal saline flowed into the dialyzer at a rate of 300 mL/minute from the Arterial line and exited the dialyzer through the Venous line. Samples of saline were collected from the venous side of the dialyzer.

[3] = for Sulfate Concentration / Sulfide Concentration / Sulfite Concentration: degradation product, dialysate bicarbonate concentrate + sodium thiosulfate; for Measured Sodium Thiosulfate Concentration: dialysate bicarbonate concentrate, room temperature, expected 1.61 mg/mL
Description: as §1
Example 2 was performed to determine the stability of sodium thiosulfate in dialysate bicarbonate concentrate solution. At room temperature, 12500 mg sodium thiosulfate (50 mL of 250 mg/mL solution) was added to 7,700 mL of dialysate bicarbonate concentrate solution. The thiosulfate concentration of the dialysate bicarbonate concentrate solution was analyzed by ion chromatography 1) before addition of sodium thiosulfate; 2) 5 minutes after the addition of sodium thiosulfate; and 3) 2 hours after the addition of sodium thiosulfate.

[4] = material safety data sheet; cited from earlier work
[5] = 60 mg sample, 2 mL of 0.1 N hydrochloric acid, 80° C., approximately 24 hours
Description: as §1

[6] = during the first hour of hemodialysis; cited from earlier work

For O=S(O)(O)=S [Sodium Thiosulfate, sodium thiosulfate], the “Thiosulfate Concentration by Assay” value [1] was 0.001824, the “passage along or through dialyzer (in words)” value ([2]; added to unspiked dialysate between hemodialysis machine and dialyzer membrane) was “can either pass along or pass through a dialyzer” and the “Thiosulfate Concentration After the Addition of Sodium Thiosulfate (Time = 60 Min)” value ([2]; dialysate after dialyzer) was 2.20 µM. For the same molecule, the “Thiosulfate Concentration After the Addition of Sodium Thiosulfate (Time = 60 Min)” value ([2]; dialysate before dialyzer) was 4.04 µM, the “Thiosulfate Concentration After the Addition of Sodium Thiosulfate (Time = 60 Min)” value ([2]; saline solution after dialyzer (venous side)) was 1.62 µM and the “Sulfate Concentration” value ([3]; after 5 minutes) was 4.4 µg/mL. The “Sulfide Concentration” value ([3]; after 5 minutes) was less than 2.5 µg/mL, the “Sulfite Concentration” value ([3]; after 5 minutes) was 5.9 µg/mL and the “Sulfate Concentration” value ([3]; after 2 hours) was 4.3 µg/mL. The “Sulfide Concentration” value ([3]; after 2 hours) was less than 2.5 µg/mL, the “Sulfite Concentration” value ([3]; after 2 hours) was 5.4 µg/mL and the “Measured Sodium Thiosulfate Concentration” value ([3]; after 5 minutes) was 1.65 mg/mL. The “Measured Sodium Thiosulfate Concentration” value ([3]; after 2 hours) was 1.65 mg/mL, the “stability in dialysate bicarbonate concentrate solution (in words)” value ([3]; over 2 hours) was “stable” and the “behaviour on contact with acid (in words)” value [4] was “decomposes on contact with acid”. The “percentage of thiosulfate degradation” value [5] was 28.6% and the “decline of concentration of thiosulfate in the plasma” value [6] was “over 60%”.
